Assay results reported in US20230067926A1, “SYSTEMS AND METHODS FOR MONITORING PLATELET ACTIVATION” (The Regents of the University of Michigan, priority 2021, published 2023).

How the values were obtained:
[1] = test system: collagen and epinephrine stimulated human platelets; test: cells; conditions: Platelet, read-out: IC50 of inhibition of collagen-stimulated platelet activation
Protocol: Fluorescence-activated Cell Sorting Analysis. […] Collagen (40 μg/ml) was then added (4 μl) and incubated for 2 min at room temperature in all tubes. Platelet activation was measured by using 20 μl of the anti-9F9 antibody-FITC and 10 μl of the constitutive platelet marker, anti-CD61-PE (Phycierythrin). As a control for the anti-9F9 antibody, 10 μl of the isotype control, anti-mouse IgG1-FITC, was used with 10 μl of anti-CD61-PE in a separate tube. The antibodies were incubated at room temperature in the dark for 15 minutes. After the incubation, 700 μl of 1% formalin/dPBS was added to each tube and stored at 4° C. for up to 24 hrs post fixing until ready to run the fluorescence-activated cell sorting (FACS) analysis on a FACSCalibur flow cytometer (Beckton Dickenson San Jose, Calif.). CellQuest software (Beckton Dickenson San Jose, Calif.) was employed for the data analysis.
Cell populations were identified for data collection by their log forward scatter (FSC) and log side scatter (SSC) light profiles. […] Mean fluorescence intensity (MFI) of the anti-9F9 immunostaining was quantitated by a FITC (FL1) versus PE (FL2) log plot analysis. […] The adjusted WI was expressed as the geometric mean channel fluorescence minus the appropriate isotype control. The platelet reactivity index (PRI) was calculated by the following equation: […]

[2] = test system: activated platelets in whole blood; test: PDA liposome-9F9 microarray detection of activated platelets in whole blood; type: cell-based, human
Protocol: To fabricate the PDA liposome Microarray, the liposomes were covalently immobilized on amine-modified glass slides through the amine-epoxy chemistry. 0.5 mM PDA-epoxy liposome solution was spotted on amine-coated glass slides with a manual microarrayer (VP 475, V&P scientific, INC) and was incubated at 5° C. for 24 hrs to prevent fast drying of the spotted solution. After removing the unbound liposomes by rinsing with 5 mM of pH 8 HEPES buffer, the PDA liposome-spotted slides were incubated with 0.06 mg/ml of 9F9 antibody in 5 mM of pH 8 HEPES buffer for 1 hr. After removing the unbound antibodies by rinsing with 5 mM of pH 8 HEPES buffer. […]
Detection of Activated Platelet with PDA Liposome Microarray. […] After 20 mins of incubation, fluorescence microscope images were obtained on Olympus BX 71 microscope equipped with a mercury lamp and a cut-off filter of 540 nm excitation and 600 nm emission. For fluorescence signal intensity measurement, the fabricated PDA liposome-9F9 microarray was placed on top of a 96-well plate and the combined substrates were inserted into a plate reader. Fluorescence emission intensities at 634 nm of total 120 microarray spots from three different devices were individually measured by using the excitation wavelength of 548 nm. […]

IC50 [1] | Compound | limit of detection of Tirofiban in the sample (fluorescence signal decrease) ([2]; whole blood with collagen, 20 mins incubation, PDA microarray fluorescence (FIG. 3)) | red fluorescence intensity with added collagen relative to device without it ([2]; whole blood samples with and without 40 mg/ml of collagen, 20-min incubation (FIG. 2))
~1.5 pM | CCCCS(=O)(=O)N[C@@H](Cc1ccc(OCCCCC2CCNCC2)cc1)C(=O)O [Tirofiban] | 0.16 µM | 
 | collagen |  | 2.8 times
